The values below come from patent US8053581B2, “Trisubstituted thiazole compounds, preparations methods, pharmaceutical compositions and medicals uses thereof” (Institute of Pharmacology and Toxicology Academy of …, priority 2006, dated 2011).

`COc1ccc(-c2nc(N)sc2Cc2ccccc2)cc1` [Example 1, 5-benzyl-4-(4-methoxy-phenyl)-thiazol-2-ylamine] had a melting point of 177 to 178 °C.

In turn, `Nc1nc(-c2ccc(O)cc2)c(Cc2ccccc2)s1` [Example 2, 5-benzyl-4-(4-hydroxy-phenyl)-thiazol-2-ylamine] registered a melting point of 170 to 172 °C.

Turning to `COc1ccc(-c2nc(NC(=O)c3ccccc3)sc2Cc2ccccc2)cc1` [Example 3, N-[5-benzyl-4-(4-methoxy-phenyl)-thiazol-2-yl]-benzamide], the melting point was 146 to 147 °C.

`COc1ccc(-c2nc(NC(=O)c3ccc(F)cc3)sc2Cc2ccccc2)cc1` [Example 4, N-[5-benzyl-4-(4-methoxy-phenyl)-thiazol-2-yl]-4-fluoro-benzamide] returned a melting point of 164 to 165 °C.

Compound `COc1ccc(-c2nc(NC(=O)c3ccc(Cl)cc3)sc2Cc2ccccc2)cc1` [Example 5, N-[5-benzyl-4-(4-methoxy-phenyl)-thiazol-2-yl]-4-chloro-benzamide] came in with a melting point of 182 to 183 °C.

`COc1ccc(-c2nc(N)sc2Cc2ccc([N+](=O)[O-])cc2)cc1` [Example 6, 4-(4-methoxy-phenyl)-5-(4-nitro-benzyl)-thiazol-2-ylamine] registered a melting point of 209 to 210 °C.

`O=C(Nc1nc(-c2ccc(O)cc2)c(Cc2ccccc2)s1)c1ccc(F)cc1` [Example 7, N-[5-benzyl-4-(4-hydroxy-phenyl)-thiazol-2-yl]-4-fluoro-benzamide]: the melting point lay within 205 to 206 °C.

In the case of `Nc1nc(-c2ccc(F)cc2)c(Cc2ccc([N+](=O)[O-])cc2)s1` [Example 9, 4-(4-fluoro-phenyl)-5-(4-nitro-benzyl)-thiazol-2-ylamine], the melting point lay within 217 to 218 °C.

`COc1ccc(-c2nc(NC(=O)c3ccc(F)cc3)sc2Cc2ccc([N+](=O)[O-])cc2)cc1` [Example 10, 4-fluoro-N-[4-(4-methoxy-phenyl)-5-(4-nitro-benzyl)-thiazol-2-yl]-benzamide] had a melting point of 188 to 189 °C.

For the compound `O=C(Nc1nc(-c2ccc(F)cc2)c(Cc2ccc([N+](=O)[O-])cc2)s1)c1ccc(F)cc1` [Example 11, 4-fluoro-N-[4-(4-fluoro-phenyl)-5-(4-nitro-benzyl)-thiazol-2-yl]-benzamide], the melting point lay within 120 to 122 °C.

Regarding `COc1ccc(-c2nc(NC(=O)c3ccc(OC)c(OC)c3)sc2Cc2ccccc2)cc1` [Example 12, N-[5-benzyl-4-(4-methoxy-phenyl)-thiazol-2-yl]-3,4-dimethoxy-benzamide], the melting point is 179 to 180 °C.

Compound `COc1ccc(-c2nc(NC(=O)c3ccc(C#N)cc3)sc2Cc2ccccc2)cc1` [Example 13, N-[5-benzyl-4-(4-methoxy-phenyl)-thiazol-2-yl]-4-cyano-benzamide] returned a melting point of 194 to 196 °C.

On to `COc1ccc(-c2nc(NC(=O)c3ccc(C#N)cc3)sc2Cc2ccc([N+](=O)[O-])cc2)cc1` [Example 14, 4-cyano-N-[4-(4-methoxy-phenyl)-5-(4-nitro-benzyl)-thiazol-2-yl]-benzamide], for which the melting point lay within 190 to 192 °C.

As for `N#Cc1ccc(C(=O)Nc2nc(-c3ccc(F)cc3)c(Cc3ccc([N+](=O)[O-])cc3)s2)cc1` [Example 15, 4-cyano-N-[4-(4-fluoro-phenyl)-5-(4-nitro-benzyl)-thiazol-2-yl]-benzamide], the melting point lay in the range of 244 to 245 °C.

For the compound `COc1ccc(-c2nc(NC(=O)c3cc(F)cc(F)c3)sc2Cc2ccccc2)cc1` [Example 16, N-[5-benzyl-4-(4-methoxy-phenyl)-thiazol-2-yl]-3,5-difluoro-benzamide], the melting point is 154 to 155 °C.

Compound `COc1ccc(-c2nc(NC(=O)c3cc(F)cc(F)c3)sc2Cc2ccc([N+](=O)[O-])cc2)cc1` [Example 17, 3,5-difluoro-N-[4-(4-methoxy-phenyl)-5-(4-nitro-benzyl)-thiazol-2-yl]-benzamide] registered a melting point of 189 to 190 °C.

With `O=C(Nc1nc(-c2ccc(F)cc2)c(Cc2ccc([N+](=O)[O-])cc2)s1)c1cc(F)cc(F)c1` [Example 18, 3,5-difluoro-N-[4-(4-fluoro-phenyl)-5-(4-nitro-benzyl)-thiazol-2-yl]-benzamide], the melting point was in the range of 216 to 218 °C.

The compound `COc1ccc(C(=O)Nc2nc(-c3ccc(F)cc3)c(Cc3ccc([N+](=O)[O-])cc3)s2)cc1OC` [Example 20, N-[4-(4-fluoro-phenyl)-5-(4-nitro-benzyl)-thiazol-2-yl]-3,4-dimethoxy-benzamide] had a melting point of 128 to 129 °C.

Regarding `COc1ccc(-c2nc(NC(=O)c3cc(F)cc(F)c3)sc2Cc2ccc(F)cc2)cc1` [Example 22, 3,5-difluoro-N-[5-(4-fluoro-benzyl)-4-(4-methoxy-phenyl)-thiazol-2-yl]-benzamide], the melting point fell in the range of 175 to 176 °C.

Regarding `COc1ccc(-c2nc(NC(=O)c3ccc(F)cc3)sc2Cc2ccc(F)cc2)cc1` [Example 23, 4-fluoro-N-[5-(4-fluoro-benzyl)-4-(4-methoxy-phenyl)-thiazol-2-yl]-benzamide], the melting point lay within 184 to 185 °C.

`COc1ccc(-c2nc(N(C(=O)c3ccc(OC)c(OC)c3)C(=O)c3ccc(OC)c(OC)c3)sc2Cc2ccc(F)cc2)cc1` [Example 24] gave a melting point of 136 to 137 °C.

`COc1ccc(-c2nc(NC(=O)c3ccc(C#N)cc3)sc2Cc2ccc(F)cc2)cc1` [Example 25, 4-cyano-N-[5-(4-fluoro-benzyl)-4-(4-methoxy-phenyl)-thiazol-2-yl]-benzamide] displayed a melting point of 191 to 192 °C.

Take `Nc1nc(-c2ccccc2)c(Cc2ccc([N+](=O)[O-])cc2)s1` [Example 26, 5-(4-nitro-benzyl)-4-phenyl-thiazol-2-ylamine]: the melting point fell in the range of 215 to 216 °C.

For the compound `COc1ccc(C(=O)Nc2nc(-c3ccc(OC)cc3)c(Cc3ccccc3)s2)cc1` [Example 27, N-[5-benzyl-4-(4-methoxy-phenyl)-thiazol-2-yl]-4-methoxy-benzamide], the melting point was in the range of 58 to 59 °C.

Compound `COc1ccc(-c2nc(NC(=O)c3ccc(OC)c(OC)c3)sc2Cc2ccc([N+](=O)[O-])cc2)cc1` [Example 28, 3,4-dimethoxy-N-[4-(4-methoxy-phenyl)-5-(4-nitro-benzyl)-thiazol-2-yl]-benzamide] returned a melting point of 106 to 108 °C.

In turn, `COc1ccc(C(=O)Nc2nc(-c3ccccc3)c(Cc3ccc([N+](=O)[O-])cc3)s2)cc1OC` [Example 29, 3,4-dimethoxy-N-[5-(4-nitro-benzyl)-4-phenyl-thiazol-2-yl]-benzamide] gave a melting point of 105 to 106 °C.

In turn, `COc1ccc(-c2nc(NC(=O)c3ccc(OC)c(OC)c3)sc2Cc2ccc(F)cc2)cc1` [Example 30, N-[5-(4-fluoro-benzyl)-4-(4-methoxy-phenyl)-thiazol-2-yl]-3,4-dimethoxy-benzamide] showed a melting point of 140 to 142 °C.

The compound `COc1ccc(-c2nc(NC(=O)c3ccc(OC)cc3OC)sc2Cc2ccccc2)cc1` [Example 35, N-[5-benzyl-4-(4-methoxy-phenyl)-thiazol-2-yl]-2,4-dimethoxy-benzamide] registered a melting point of 196 to 197 °C.

Take `COc1ccc(-c2nc(NC(=O)c3ccccc3OC)sc2Cc2ccccc2)cc1` [Example 36, N-[5-benzyl-4-(4-methoxy-phenyl)-thiazol-2-yl]-2-methoxy-benzamide]: the melting point is 147 to 148 °C.

For `COc1ccc(-c2nc(NC(=O)c3cc(OC)c(OC)c(OC)c3)sc2Cc2ccccc2)cc1` [Example 37, N-[5-benzyl-4-(4-methoxy-phenyl)-thiazol-2-yl]-3,4,5-trimethoxy-benzamide], the melting point lay in the range of 157 to 158 °C.

Turning to `O=C(Nc1nc(-c2ccc(O)cc2)c(Cc2ccccc2)s1)c1ccccc1O` [Example 39, N-[5-benzyl-4-(4-hydroxy-phenyl)-thiazol-2-yl]-2-hydroxy-benzamide], the melting point was 279 to 280 °C.

On to `COc1ccc(-c2nc(NC(=O)c3cccc(OC)c3)sc2Cc2ccccc2)cc1` [Example 42, N-[5-benzyl-4-(4-methoxy-phenyl)-thiazol-2-yl]-3-methoxy-benzamide], for which the melting point is 71 to 72 °C.

The compound `COc1ccc(-c2nc(NC(=O)c3cc(OC)cc(OC)c3)sc2Cc2ccccc2)cc1` [Example 43, N-[5-benzyl-4-(4-methoxy-phenyl)-thiazol-2-yl]-3,5-dimethoxy-benzamide] returned a melting point of 152 to 153 °C.

In the case of `O=C(Nc1nc(-c2ccc(O)cc2)c(Cc2ccccc2)s1)c1cccc(O)c1` [Example 44, N-[5-benzyl-4-(4-hydroxy-phenyl)-thiazol-2-yl]-3-hydroxy-benzamide], the melting point lay within 233 to 234 °C.

Compound `O=C(Nc1nc(-c2ccc(O)cc2)c(Cc2ccccc2)s1)c1cc(O)cc(O)c1` [Example 45, N-[5-benzyl-4-(4-hydroxy-phenyl)-thiazol-2-yl]-3,5-dihydroxy-benzamide] came in with a melting point of 262 to 263 °C.

`O=C(Nc1nc(-c2ccc(O)cc2)c(Cc2ccccc2)s1)c1ccc(O)cc1` [Example 46, N-[5-benzyl-4-(4-hydroxy-phenyl)-thiazol-2-yl]-4-hydroxy-benzamide] gave a melting point of 254 to 255 °C.

`COc1ccc(-c2nc(NC(=O)c3ccc(OC)c(OC)c3)sc2CC2CCCCC2)cc1` [Example 48, N-[5-cyclohexylmethyl-4-(4-methoxy-phenyl)-thiazol-2-yl]-3,4-dimethoxy-benzamide]: the melting point is 171 to 172 °C.

Take `COc1ccc(-c2nc(NC(=O)c3cc(OC)c(OC)c(OC)c3)sc2CC2CCCCC2)cc1` [Example 50]: the melting point was 193 to 194 °C.

The compound `COc1ccc(-c2nc(N)sc2C)cc1` [Example 52, 4-(4-methoxy-phenyl)-5-methyl-thiazol-2-ylamine] gave a melting point of 139 to 140 °C.

For the compound `COc1ccc(-c2nc(NC(=O)c3cc(OC)c(OC)c(OC)c3)sc2C)cc1` [Example 53, 3,4,5-trimethoxy-N-[4-(4-methoxy-phenyl)-5-methyl-thiazol-2-yl]-benzamide], the melting point was in the range of 105 to 106 °C.

`COc1ccc(-c2nc(NC(=O)c3ccc(OC)c(OC)c3)sc2C)cc1` [Example 54, 3,4-dimethoxy-N-[4-(4-methoxy-phenyl)-5-methyl-thiazol-2-yl]-benzamide] had a melting point of 174 to 175 °C.

For orientation: melting point means the temperature of the solid-liquid transition.
